{"source": "patent US6835382B2", "about": "“Ii peptide therapeutics to enhance antigen presentation” (University of Massachusetts, priority 1996, dated 2004)", "key": {"[1]": {"system": "murine E^k MHC class II allele", "assay": "antigenic peptide prepulse assay, E^k allele (fixed APC prepulsed with PGCC81-104)", "format": "cell-based", "settings": "AE peptide 64 μM; for Activity in antigenic peptide prepulse assay, E^k (baseline = 1.0): prepulse 1.25 μM antigenic peptide; for Activity in antigenic peptide prepulse assay, E^k (baseline = 1.00): Table 25, prepulse 2.5 μM antigenic peptide, supernatant 1:10", "method_in_brief": "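Paraformaldehyde-fixed APC were loaded for 6 h with antigenic peptide (PGCC81-104 for E^k), washed, then cultured for 24 h with specific T hybridoma plus AE101 peptide. Interleukin release was measured as HT-2 proliferation on supernatant.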"}, "[2]": {"target": "T1, murine E^d MHC class II allele (Mus musculus, UniProt P01904+P01915)", "T1 sequence (P01904 26-255)": "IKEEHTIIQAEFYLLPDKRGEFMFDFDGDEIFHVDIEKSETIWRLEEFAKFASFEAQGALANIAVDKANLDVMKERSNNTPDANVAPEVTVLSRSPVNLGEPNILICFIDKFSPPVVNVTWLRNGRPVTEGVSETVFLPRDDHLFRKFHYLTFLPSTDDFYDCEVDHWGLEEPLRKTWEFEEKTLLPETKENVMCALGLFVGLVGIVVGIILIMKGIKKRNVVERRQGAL", "T1 sequence (P01915 27-264 limits assumed)": "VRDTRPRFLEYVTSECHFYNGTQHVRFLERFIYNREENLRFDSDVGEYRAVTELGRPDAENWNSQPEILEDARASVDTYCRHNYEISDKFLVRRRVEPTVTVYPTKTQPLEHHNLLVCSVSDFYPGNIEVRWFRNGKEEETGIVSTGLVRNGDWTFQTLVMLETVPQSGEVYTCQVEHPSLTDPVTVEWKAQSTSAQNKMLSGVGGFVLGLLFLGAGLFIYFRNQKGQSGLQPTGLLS", "assay": "AE101 series peptide prepulse assay, E^d allele", "format": "cell-based", "settings": "for T cell response relative to baseline with PBS-pretreated APC (NONE = 1.0), E^d: Table 35, AE101 series peptide prepulse 64 μM, antigenic peptide 0.3 μM, supernatant dilution 1:4", "protocol": "(§1) Table 35: Activities of multiple substitution analogs of AE235, targeting the E^k and E^d allele, in an AE101 series peptide prepulse assay. In this assay the concentration of AE101 series peptides used during the prepulse was 64 μM. The concentrations of antigenic peptides were 0.3 μM for Ed and 0.4 μM for E^k. The supernatant dilutions taken into the HT-2 cell assay was 1:4 for E and 1:2 for E^k. The AE381 peptide is a head-to-tail cyclization: the amino terminal amino group is coupled through an amide linkage to the carboxyl terminal group. The AE 382 peptide is a side-to-tail cyclization: the epsilon amino group of Lys^4 is coupled through an amide linkage to the carboxyl terminal group.\n(§2) AE101 series peptide prepulse assays were carried out in the E^d and E^k systems as described for simultaneous competition assays with the following modifications. Fixed APC were first incubated for 6 h at 1×10^6DMEM-5% FCS with 64 μM of each AE101 series peptide or with PBS. The APC were then washed four times with ten volumes of DMEM-5% FCS, and were cocultured with T hybridoma cells and the indicated submaximal doses of antigenic peptides used in the simultaneous competition assays. The baseline T cell response was measured by culturing T hybridoma cells with antigenic peptide and PBS-pretreated APC."}, "[3]": {"system": "murine E^k MHC class II allele", "assay": "AE101 series peptide prepulse assay, E^k allele", "format": "cell-based", "settings": "Table 35; AE101 series peptide prepulse 64 μM; antigenic peptide 0.4 μM; supernatant dilution 1:2", "protocol": "as §1, §2"}, "[4]": {"system": "HLA-DR1 molecules", "assay": "release of biotin-labeled hMBP(90-102) from HLA-DR1 without unlabeled antigenic peptide (assay I)", "format": "binding, human", "settings": "Table 37, no unlabeled hMBP(90-102)"}, "[5]": {"system": "HLA-DR1 molecules", "assay": "exchange of biotinylated hMBP(90-102) into antigenic peptide-loaded HLA-DR1 (assay III)", "format": "binding, human", "settings": "Table 38; HLA-DR1 preloaded with unlabeled hMBP(90-102) 50 μM; exchange with biotin-labeled hMBP(90-102) 50 μM, 37° C., 1 h; fraction of positive control o.d.; no enhancement = 0.08"}}, "note": "Positions of bridges follow the written chain, without caps; N, C: chain ends. Non-standard residues stand in square brackets, D forms with d. No end group written: not given here. hArg = N=C(N)NCCCC[C@H](N)C(=O)O; Cit = NC(=O)NCCC[C@H](N)C(=O)O"}
{"substance": "Ac-LR HArg KYP Cit-NH2 [AE366]", "values": [{"measurement": "Activity in antigenic peptide prepulse assay, E^k (baseline = 1.0)", "setting": "[1]; Table 26, supernatant 1:8", "value": 0.94}, {"measurement": "T cell response relative to baseline with PBS-pretreated APC (NONE = 1.0), E^d", "setting": "[2]", "value": 7.5}, {"measurement": "T cell response relative to baseline with PBS-pretreated APC (NONE = 1.0), E^k", "setting": "[3]", "value": 3.5}]}
{"substance": "Ac-FK HArg MYP Cit-NH2 [AE371]", "values": [{"measurement": "Activity in antigenic peptide prepulse assay, E^k (baseline = 1.0)", "setting": "[1]; Table 26, supernatant 1:8", "value": 0.99}]}
{"substance": "Ac-LRMMYP[Cit]-NH2 [AE367]", "values": [{"measurement": "Activity in antigenic peptide prepulse assay, E^k (baseline = 1.0)", "setting": "[1]; Table 26, supernatant 1:8", "value": 0.99}]}
{"substance": "cyclic LRMKLPK (bridge (positions not given here); also: cyclic, ring type not given here) [AE381, “head-to-tail” cyclization from the amino-terminus to the carboxyl-terminus of AE114]", "values": [{"measurement": "Activity in antigenic peptide prepulse assay, E^k (baseline = 1.0)", "setting": "[1]; Table 28, supernatant 1:4", "value": 0.28}, {"measurement": "T cell response relative to baseline with PBS-pretreated APC (NONE = 1.0), E^d", "setting": "[2]", "value": 1.0}, {"measurement": "activity in the AE101 series peptide prepulse assay, in words", "setting": "[2]; text on Table 35, AE peptide prepulse 64 μM, E^d and E^k systems", "value": "potent suppressive activity"}, {"measurement": "T cell response relative to baseline with PBS-pretreated APC (NONE = 1.0), E^k", "setting": "[3]", "value": 0.3}, {"measurement": "Relative Release, Without unlabeled hMBP(90-102), 1 μM", "setting": "[4]; AE101 series compound 1 μM", "value": 0.64}, {"measurement": "Relative Release, Without unlabeled hMBP(90-102), 64 μM", "setting": "[4]; AE101 series compound 64 μM", "value": 0.5}, {"measurement": "Relative Binding", "setting": "[5]", "value": "−0.12"}]}
{"substance": "Ac-LK HArg KYPK-NH2 [AE363]", "values": [{"measurement": "Activity in antigenic peptide prepulse assay, E^k (baseline = 1.0)", "setting": "[1]; Table 26, supernatant 1:8", "value": 0.97}]}
{"substance": "Ac-LRMKNPF-NH2 [AE350]", "values": [{"measurement": "Activity in antigenic peptide prepulse assay, E^k (baseline = 1.00)", "setting": "[1]", "value": 0.86}]}
{"substance": "Ac-A[Cit]NKNPK-NH2 [AE351]", "values": [{"measurement": "Activity in antigenic peptide prepulse assay, E^k (baseline = 1.00)", "setting": "[1]", "value": 0.90}]}
{"substance": "Ac-L[hArg]MKYPK-NH2 [AE360]", "values": [{"measurement": "Activity in antigenic peptide prepulse assay, E^k (baseline = 1.0)", "setting": "[1]; Table 26, supernatant 1:8", "value": 0.94}]}
{"substance": "Ac-LRMKLPK (lactam 4-C) [AE382]", "values": [{"measurement": "Activity in antigenic peptide prepulse assay, E^k (baseline = 1.0)", "setting": "[1]; Table 28, supernatant 1:4", "value": 0.70}, {"measurement": "T cell response relative to baseline with PBS-pretreated APC (NONE = 1.0), E^d", "setting": "[2]", "value": 1.7}, {"measurement": "T cell response relative to baseline with PBS-pretreated APC (NONE = 1.0), E^k", "setting": "[3]", "value": 3.2}]}
{"substance": "Ac-L[hArg]LKYPK-NH2 [AE361]", "values": [{"measurement": "Activity in antigenic peptide prepulse assay, E^k (baseline = 1.0)", "setting": "[1]; Table 26, supernatant 1:8", "value": 1.00}]}
{"substance": "Ac-LRMKYPN-NH2 [AE370]", "values": [{"measurement": "Activity in antigenic peptide prepulse assay, E^k (baseline = 1.0)", "setting": "[1]; Table 26, supernatant 1:8", "value": 0.58}]}
{"substance": "Ac-LRMKYP[Cit]-NH2 [AE364]", "values": [{"measurement": "Activity in antigenic peptide prepulse assay, E^k (baseline = 1.0)", "setting": "[1]; Table 26, supernatant 1:8", "value": 0.93}]}
{"substance": "Ac-LR HArg MYPK-NH2 [AE365]", "values": [{"measurement": "Activity in antigenic peptide prepulse assay, E^k (baseline = 1.0)", "setting": "[1]; Table 26, supernatant 1:8", "value": 0.42}]}
{"substance": "Ac-LKMKYPK-NH2 [AE362]", "values": [{"measurement": "Activity in antigenic peptide prepulse assay, E^k (baseline = 1.0)", "setting": "[1]; Table 26, supernatant 1:8", "value": 0.91}]}
{"substance": "Ac-LR Orn K HArg PK-NH2 [AE340]", "values": [{"measurement": "Activity in antigenic peptide prepulse assay, E^k (baseline = 1.00)", "setting": "[1]", "value": 0.83}]}
{"substance": "Ac-LRLKYPN-NH2 [AE368]", "values": [{"measurement": "Activity in antigenic peptide prepulse assay, E^k (baseline = 1.0)", "setting": "[1]; Table 26, supernatant 1:8", "value": 0.92}]}
